From US4912227A, “1,2,8,8A-tetrahydrocyclopropa(c)pyrrolo(3,2-e)-indol-4-(5H)-ones and related compounds” (The Upjohn Company, priority 1985, dated 1990)
≈ marks a conversion by molar mass, not a printed value.

How the values were obtained:
murine L1210 tumor cells = test: cytotoxic activity against murine L1210 tumor cells in suspension (3-day cell growth); type: cell-based; conditions: for IC50 / IC90: Mus musculus, 72 h; for IC50: read-out: L-1210 (3-Day Cell Growth) ID50; for IC90: read-out: L-1210 (3-Day Cell Growth) ID90
Method: Many of the compounds of the subject invention have useful cytotoxic activity against murine L1210 tumor cells in suspension, which is a standard model for such tests before the compounds are tested in humans. […] Following is a table showing the results of testing various compounds against L1210 in suspension using standard, well-known procedures. The compounds are identified by an internal designation called "U-" number. The structural identify of the "U-" numbered compounds is shown in Chart I.

Klebsiella pneumonia = test: antimicrobial activity
Proteus vulgaris = test: antimicrobial activity
[1] = test system: Saccharomyces pastorianus; test: antimicrobial activity
[2] = test system: Salmonella schottmeulerri; test: antimicrobial activity
Sarcina lutea = test: antimicrobial activity
Penicillium oxalicum = test: antimicrobial activity
Escherichia coli = test: antimicrobial activity
Mycobacterium avium = test: antimicrobial activity
Staphylococcus aureus = test: antimicrobial activity
Bacillus subtilis = test: antimicrobial activity
P388 leukemia = test: antitumor activity in P388 leukemic mice, intraperitoneal; type: in vivo; conditions: for ILS at 0.1 mg/kg: at 0.10 mg./kg.
Description: These murine test systems are predictive for clinically useful human antitumor agents (see, for example, A. Geldin, J. M. Vendetti, J. S. MacDonald, F. M. Muggia, J. E. Henney and V. T. DeVita, European J. Cancer, Vol. 17, pp. 129-142, 1981; J. M. Vendetti, Cancer Treatment Reports, Vol. 67, pp. 767-772, 1983; and J. M. Vendetti, R. A. Wesley, and J. Plowman, Advances in Pharmacology and Chemotherapy, Vol. 20, pp. 1-20, 1984), and it is therefore presumed that the compounds of the subject invention will be useful in the control and treatment of cancer in humans when given, for example, intravenously in doses of 0.001 to about 10 mg. per kg. of body weight per day, the exact dose depending on the age, weight and condition of the patient, and on the frequency of administration. Following is a table showing the results of testing various compounds intraperitoneally against P388 leukemic mice using standard well-known procedures (In Vivo cancer, Models, NIH Publication No. 84-2635, 1984). The structural identify of the "U-" numbered compounds is shown in Chart I. In the table %ILS refers to percent increase in life span of treated animals over controls.

B16 melanoma = B16 melanoma implanted subcutaneously in mice, single intravenous dose; type: in vivo
Description: (§1) These characteristics are advantageous for antitumor agents.

solid tumors = test: activity against solid tumors; design: species or system mice; conditions: mouse, in vivo
Description: as §1

[3] = test system: human lung tumor (Lx-1 carcinoma); test: human lung tumor (Lx-1 carcinoma) xenograft in nude mice; type: in vivo
Description: as §1

Lewis carcinoma = test: lifespan of mice implanted with Lewis carcinoma; type: in vivo
Description: as §1

[4] = stability in aqueous solution; type: physicochemical
M5076 ovarian sarcoma = test: lifespan of mice implanted with M5076 ovarian sarcoma; type: in vivo
Description: as §1

[5] = solubility in aqueous solution; type: physicochemical
[6] = Mus musculus, P388, ip, read-out: P388 % ILS (percent increase in life span over controls)

Q: With `Cc1c[nH]c2c1C13CC1CN(S(C)(=O)=O)C3=CC2=O` (stereo not drawn) [U-62,736] as the compound, how does the “L-1210 (3-Day Cell Growth) ID50” value (murine L1210 tumor cells) read?
A: 39 ng/mL

Q: And the “L-1210 (3-Day Cell Growth) ID90” value (murine L1210 tumor cells)?
A: 180 ng/mL

Q: For `CC(=O)N1CC2CC23C1=CC(=O)c1[nH]cc(C)c13` (stereo not drawn) [U-66,664], which IC50 (murine L1210 tumor cells) is on record?
A: 4.8 ng/mL (≈ 19.8 nM)

Q: And the IC90 (murine L1210 tumor cells)?
A: 18 ng/mL (≈ 74.3 nM)

Q: Which “activity against Klebsiella pneumonia” value (Klebsiella pneumonia) does the source give for `CC(=O)N1CC(COS(C)(=O)=O)c2c1cc(O)c1[nH]cc(C)c21` (stereo not drawn) [U-66,665] here?
A: have activity against

Q: And the “activity against Proteus vulgaris” value (Proteus vulgaris)?
A: have activity against

Q: And the “activity against Saccharomyces pastorianus” value [1]?
A: have activity against

Q: And the “activity against Salmonella schottmeulerri” value [2]?
A: have activity against

Q: What about the “activity against Sarcina lutea” value (Sarcina lutea) of the same compound?
A: have activity against

Q: What about the “activity against Penicillium oxalicum” value (Penicillium oxalicum) of the same compound?
A: have activity against

Q: And the “activity against Escherichia coli” value (Escherichia coli)?
A: have activity against

Q: And the “activity against Mycobacterium avium” value (Mycobacterium avium)?
A: have activity against

Q: And the “activity against Staphylococcus aureus” value (Staphylococcus aureus)?
A: have activity against

Q: What about the “activity against Bacillus subtilis” value (Bacillus subtilis) of the same compound?
A: have activity against

Q: And the IC50 (murine L1210 tumor cells)?
A: 9 ng/mL (≈ 26.6 nM)

Q: And the IC90 (murine L1210 tumor cells)?
A: 32 ng/mL (≈ 94.6 nM)

Q: Which “activity against Klebsiella pneumonia” value (Klebsiella pneumonia) does the source give for `Cc1c[nH]c2c1C13CC1CN(C(=O)c1cc4ccccc4[nH]1)C3=CC2=O` (stereo not drawn) [U-66,694, 1,2,8,8a-tetrahydro-7-methyl-2-(1H-indol-2-ylcarbonyl)cyclopropa[c]pyrrolo(3,2-c]indol-4(5H)-one] here?
A: have activity against

Q: And the “activity against Proteus vulgaris” value (Proteus vulgaris)?
A: have activity against

Q: What about the “activity against Saccharomyces pastorianus” value [1] of the same compound?
A: have activity against

Q: And the “activity against Salmonella schottmeulerri” value [2]?
A: have activity against

Q: And the “activity against Sarcina lutea” value (Sarcina lutea)?
A: have activity against

Q: What about the “activity against Penicillium oxalicum” value (Penicillium oxalicum) of the same compound?
A: have activity against

Q: What about the “activity against Escherichia coli” value (Escherichia coli) of the same compound?
A: have activity against

Q: And the ILS at 0.63 mg/kg (P388 leukemia; Mus musculus, P388, ip, at 0.63 mg./kg., read-out: P388 % ILS (percent increase in life span over controls))?
A: 164%

Q: And the “activity against Mycobacterium avium” value (Mycobacterium avium)?
A: have activity against

Q: What about the “activity against Staphylococcus aureus” value (Staphylococcus aureus) of the same compound?
A: have activity against

Q: And the “activity against Bacillus subtilis” value (Bacillus subtilis)?
A: have activity against

Q: What about the IC50 (murine L1210 tumor cells) of the same compound?
A: 0.15 ng/mL (≈ 0.437 nM)

Q: What about the IC90 (murine L1210 tumor cells) of the same compound?
A: 0.34 ng/mL (≈ 0.99 nM)

Q: For `Cc1c[nH]c2c1C13CC1CNC3=CC2=O` (stereo not drawn) [U-66,777], which IC50 (murine L1210 tumor cells) is on record?
A: 180 ng/mL (≈ 899 nM)

Q: What about the IC90 (murine L1210 tumor cells) of the same compound?
A: 920 ng/mL (≈ 4590 nM)

Q: What does the source list for `Cc1c[nH]c2c1C13CC1CN(C(=O)c1ccccc1)C3=CC2=O` (stereo not drawn) [U-66,866, 1,2,8,8a-tetrahydro-7-methyl-2-benzoylcyclopropa[c]pyrrolo[3,2-e]indol-4(5H)-one]?
A: ILS at 12 mg/kg (P388 leukemia; Mus musculus, P388, ip, at 12 mg./kg., read-out: P388 % ILS (percent increase in life span over controls)): 71%; IC50 (murine L1210 tumor cells): 1.5 ng/mL (≈ 4.93 nM); IC90 (murine L1210 tumor cells): 4.5 ng/mL (≈ 14.8 nM)

Q: For `COc1c(O)ccc2cc(C(=O)N3CC4CC45C3=CC(=O)c3[nH]cc(C)c35)[nH]c12` (stereo not drawn) [U-67,785, 1,2,8,8a-tetrahydro-7-methyl-2-[(6-hydroxy-7-methoxy-1H-indol-2-yl)carbonyl]cyclopropa[c]pyrrolo[3,2-e]indol-4(5H)-one], which ILS at 0.06 mg/kg (P388 leukemia; Mus musculus, P388, ip, at 0.06 mg./kg., read-out: P388 % ILS (percent increase in life span over controls)) is on record?
A: 60%

Q: And the IC50 (murine L1210 tumor cells)?
A: 0.072 ng/mL (≈ 0.185 nM)

Q: What about the IC90 (murine L1210 tumor cells) of the same compound?
A: 0.19 ng/mL (≈ 0.488 nM)

Q: For `COc1ccc2[nH]c(C(=O)N3CC4CC45C3=CC(=O)c3[nH]cc(C)c35)cc2c1` (stereo not drawn) [U-67,786], which IC50 (murine L1210 tumor cells) is on record?
A: 0.046 ng/mL (≈ 0.123 nM)

Q: And the IC90 (murine L1210 tumor cells)?
A: 0.1 ng/mL (≈ 0.268 nM)

Q: With `Cc1c[nH]c2c1C13CC1CN(C(=O)c1cc4cc(NC(=O)c5cc6ccccc6[nH]5)ccc4[nH]1)C3=CC2=O` (stereo not drawn) [U-68,415] as the compound, how does the P388 cures (P388 leukemia; at 0.05 mg./kg.) read?
A: 4/6

Q: And the IC50 (murine L1210 tumor cells)?
A: 0.018 ng/mL (≈ 0.0359 nM)

Q: And the IC90 (murine L1210 tumor cells)?
A: 0.044 ng/mL (≈ 0.0877 nM)

Q: Which IC50 (murine L1210 tumor cells) does the source give for `Cc1c[nH]c2c1C13CC1CN(C(=O)c1ccc4ccccc4n1)C3=CC2=O` (stereo not drawn) [U-68,749, 1,2,8,8a-tetrahydro-7-methyl-2-(quinolinylcarbonyl)cyclopropa[c]pyrrolo[3,2-e]indol-4(5H)-one] here?
A: 3.4 ng/mL (≈ 9.57 nM)

Q: And the IC90 (murine L1210 tumor cells)?
A: 8.4 ng/mL (≈ 23.6 nM)

Q: Which ILS at 1 mg/kg (P388 leukemia; Mus musculus, P388, ip, at 1 mg./kg., read-out: P388 % ILS (percent increase in life span over controls)) does the source give for `Cc1c[nH]c2c1C13CC1CN(C(=O)c1ccc[nH]1)C3=CC2=O` (stereo not drawn) [U-68,819, 1,2,8,8a-tetrahydro-7-methyl-2-(2-pyrrolylcarbonyl)cyclopropa[c]pyrrolo[3,2-e]indol-4(5H)-one] here?
A: 71%

Q: What about the IC50 (murine L1210 tumor cells) of the same compound?
A: 0.48 ng/mL (≈ 1.64 nM)

Q: What about the IC90 (murine L1210 tumor cells) of the same compound?
A: 1.5 ng/mL (≈ 5.11 nM)

Q: With `Cc1c[nH]c2c1C13CC1CN(C(=O)c1cc4cc(NC(=O)c5ccccc5)ccc4[nH]1)C3=CC2=O` (stereo not drawn) [U-68,846, 1,2,8,8a-tetrahydro-7-methyl-2-[[5-benzoylamino-1H-indol-2-yl]carbonyl]cyclopropa[c]pyrrolo[3,2-e]indol-4(5H)-one] as the compound, how does the ILS at 0.05 mg/kg (P388 leukemia; Mus musculus, P388, ip, at 0.05 mg./kg., read-out: P388 % ILS (percent increase in life span over controls)) read?
A: 82%

Q: What about the IC50 (murine L1210 tumor cells) of the same compound?
A: 0.034 ng/mL (≈ 0.0735 nM)

Q: And the IC90 (murine L1210 tumor cells)?
A: 0.096 ng/mL (≈ 0.208 nM)

Q: What does the source list for `Cc1c[nH]c2c1C13CC1CN(C(=O)c1cc4cc(NC(=O)c5cc6cc(NC(=O)c7ccccc7)ccc6[nH]5)ccc4[nH]1)C3=CC2=O` (stereo not drawn) [U-68,880]?
A: ILS at 0.1 mg/kg (P388 leukemia; [6]): 71%; IC50 (murine L1210 tumor cells): 0.008 ng/mL (≈ 0.0129 nM); IC90 (murine L1210 tumor cells): 0.019 ng/mL (≈ 0.0306 nM)

Q: For `Cc1c[nH]c2c1C13CC1CN(C(=O)c1cc4cc(NC#N)ccc4[nH]1)C3=CC2=O` (stereo not drawn) [U-69,058, (1,2,8,8a)-tetrahydro-7-methyl-2-2[[5-cyanoamino-1H-indol-2-yl]carbonyl]cyclopropa[c]pyrrolo[3,2-e]indol-4(5H)-one], which ILS at 0.5 mg/kg (P388 leukemia; Mus musculus, P388, ip, at 0.50 mg./kg., read-out: P388 % ILS (percent increase in life span over controls)) is on record?
A: 96%

Q: For `Cc1c[nH]c2c1C13CC1CN(C(=O)c1cc4cc(NC(N)=O)ccc4[nH]1)C3=CC2=O` (stereo not drawn) [U-69,059, 1,2,8,8a-tetrahydro-7-methyl-2-[[5-ureido-1H-indol-2-yl]carbonyl]cyclopropa[c]pyrrolo[3,2-e]indol-4(5H)-one], which P388 cures (P388 leukemia; at 0.5 mg./kg.) is on record?
A: 4/6

Q: For `Cc1c[nH]c2c1C13CC1CN(C(=O)c1cc4cc(NC(=O)c5cc6cc(NC(N)=O)ccc6[nH]5)ccc4[nH]1)C3=CC2=O` (stereo not drawn) [U-69,060, 1,2,8,8a-tetrahydro-7-methyl-2-[[5-[[[5-ureido-1H-indol-2-yl]carbonyl]amino]-1H-indol-2-yl]carbonyl]cyclopropa[c]pyrrolo[3,2-a]indol-4(5H)-one], which ILS at 0.1 mg/kg (P388 leukemia; [6]) is on record?
A: 138%

Q: Which “activity against Klebsiella pneumonia” value (Klebsiella pneumonia) does the source give for `Cc1c[nH]c2c1[C@@]13C[C@@H]1CN(C(=O)c1cc4cc(NC(=O)c5cc6ccccc6o5)ccc4[nH]1)C3=CC2=O` [U-73,975] here?
A: has activity against

Q: What about the “increase in life span over control (non-drug treated) animals” value (B16 melanoma) of the same compound?
A: 61%

Q: What about the “activity against solid tumors” value (solid tumors) of the same compound?
A: particularly good activity against solid tumors

Q: And the “growth inhibition of human lung tumor (Lx-1 carcinoma) xenograft” value [3]?
A: significantly inhibited the growth

Q: What about the “lifespan of mice implanted with Lewis carcinoma” value (Lewis carcinoma) of the same compound?
A: significantly increased the lifespan

Q: What about the “stability in aqueous solution” value [4] of the same compound?
A: good solubility and stability characteristics in aqueous solution

Q: And the “activity against Escherichia coli” value (Escherichia coli)?
A: has activity against

Q: What about the “activity against Staphylococcus aureus” value (Staphylococcus aureus) of the same compound?
A: has activity against

Q: What about the “lifespan of mice implanted with M5076 ovarian sarcoma” value (M5076 ovarian sarcoma) of the same compound?
A: significantly increased the lifespan

Q: And the “solubility in aqueous solution” value [5]?
A: good solubility
